Results from paper PMC11551755, “Structure-based discovery of first inhibitors targeting the helicase activity of human PIF1” (Nucleic Acids Research, 2024).
Like-named read-outs stand apart in the source and are kept apart here.

B1: oligo d(T)55 (ssDNA)
DNA: TTTTTTTTTTTTTTTTTTTTTTTTTTTTTTTTTTTTTTTTTTTTTTTTTTTTTTT

Columns and labels:
FLhPIF1 = biological target: T1, FLhPIF1 (Homo sapiens, UniProt Q9H611); assay: helicase assay after pre-incubation of SMI with FLhPIF1; format: biochemical; conditions: for IC50: read-out: IC50 for dsDNA unwinding by FLhPIF1 following pre-incubation
T1 construct: Full length human PIF1 (FLhPIF1) was expressed and purified as a His-SUMO fusion; His-SUMO (cleaved yes); made in house; 'following similar protocols' to hPIF1HD (ArcticExpress BL21(DE3) E. coli)
T1 sequence (Q9H611 1-641): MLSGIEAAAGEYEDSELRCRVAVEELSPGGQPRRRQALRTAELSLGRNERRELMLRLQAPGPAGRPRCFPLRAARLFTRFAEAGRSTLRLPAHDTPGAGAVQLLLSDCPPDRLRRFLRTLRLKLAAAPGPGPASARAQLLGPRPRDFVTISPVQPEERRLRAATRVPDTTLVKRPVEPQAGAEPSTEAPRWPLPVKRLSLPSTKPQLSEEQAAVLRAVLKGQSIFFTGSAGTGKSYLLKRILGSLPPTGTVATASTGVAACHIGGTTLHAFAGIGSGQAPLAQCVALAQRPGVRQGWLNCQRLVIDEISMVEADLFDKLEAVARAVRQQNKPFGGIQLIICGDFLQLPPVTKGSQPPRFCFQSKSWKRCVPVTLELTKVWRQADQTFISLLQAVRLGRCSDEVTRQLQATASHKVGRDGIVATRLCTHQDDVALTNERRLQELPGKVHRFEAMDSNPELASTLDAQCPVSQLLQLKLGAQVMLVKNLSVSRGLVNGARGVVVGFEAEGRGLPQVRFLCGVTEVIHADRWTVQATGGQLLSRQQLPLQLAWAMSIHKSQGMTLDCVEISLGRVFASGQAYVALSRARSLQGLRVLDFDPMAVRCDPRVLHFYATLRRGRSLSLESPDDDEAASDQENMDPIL
Protocol: Helicase activity was assayed using a radiometric strand displacement assay employing a partially single- and double-stranded substrate generated by annealing two oligonucleotides: 5′-(T)55-[…] and 5′-[…], as described previously ([19],[28]). The reaction buffer was 20 mM HEPES–NaOH pH 7.5, 20 mM NaCl, 5.5 mM MgCl2, 5 mM ATP, 1 mM DTT and 0.1 mg/ml BSA. SMIs (100 mM stocks in DMSO) were assayed at up to 2 mM without pre-incubation with FLhPIF1, unless otherwise stated. Reactions (0.1 nM substrate) were incubated at 37°C for 20 min, followed by addition of 0.2 volumes of 120 mM EDTA, 0.6% (w/v) SDS, 60% (v/v) glycerol and 0.1% (w/v) bromophenol blue before resolution of products by polyacrylamide gel electrophoresis (8%, 19:1 acrylamide:bis-acrylamide), 1× TBE (90 mM Tris–borate/2 mM EDTA, pH 8.3 with 0.05% (w/v) SDS buffer). Dried gels were exposed to phosphorimaging plates (Fujifilm) for imaging and quantification (Fuji FLA3000, image gauge V3.3 software). IC50 values were analysed by non-linear regression (variable slope) using GraphPad Prism.
First, we screened inhibitory activity of the SMIs listed in Table 1, following incubation of 100 nM FLhPIF1 with 100 μM SMI for 1 h at 22°C in the absence of substrates (ATP and DNA), before a 1:10 dilution into helicase reactions. […] Next, compounds 2, 5, 6 and 11, along with 4 and 1D were selected for analysis in a pre-incubation time-course (100 nM FLhPIF1, 100 μM SMI), up to 3 h before assaying helicase activity.
(§1) In parallel, IC50 values for inhibition of human UPF1 (hUPF1) helicase activity by the SMIs were also determined under the same conditions. UPF1-like SF1B helicases are the most closely related family of helicases to PIF1, with significant structural and mechanistic similarity ([52]).
(§2) Figure 6. SMI IC50 for dsDNA unwinding determined following pre-incubation. SMIs (0.0078–2 mM SMI) were incubated for 2 h at 22°C (100 nM FLhPIF1 or hUPF1) before dilution (1:10) in the standard helicase assay (0.1 nM DNA substrate). For 1D and 6, structures, electrophoresis of FLhPIF1 reaction product and graphs for IC50 value determination are shown. The graphed data include the activity of SMIs towards hUPF1 and IC50 values obtained are given. See Supplementary Figure S14 for the complete data set. TEXT PRINTED IN THE PICTURE: 1D: IC50 (μM): PIF1: 978 ± 221; IC50 (μM): UPF1: N.D. | 6: IC50 (μM): PIF1: 79.4 ± 16; IC50 (μM): UPF1: 1750 ± 426

[1] = biological target: T2, human UPF1 (hUPF1) helicase (Homo sapiens, UniProt Q92900); assay: helicase assay after pre-incubation of SMI with hUPF1; format: biochemical; conditions: 2 h pre-incubation
T2 construct: Full-length human UPF1 helicase was expressed and purified as described previously; made in house
T2 sequence (Q92900 1-1129): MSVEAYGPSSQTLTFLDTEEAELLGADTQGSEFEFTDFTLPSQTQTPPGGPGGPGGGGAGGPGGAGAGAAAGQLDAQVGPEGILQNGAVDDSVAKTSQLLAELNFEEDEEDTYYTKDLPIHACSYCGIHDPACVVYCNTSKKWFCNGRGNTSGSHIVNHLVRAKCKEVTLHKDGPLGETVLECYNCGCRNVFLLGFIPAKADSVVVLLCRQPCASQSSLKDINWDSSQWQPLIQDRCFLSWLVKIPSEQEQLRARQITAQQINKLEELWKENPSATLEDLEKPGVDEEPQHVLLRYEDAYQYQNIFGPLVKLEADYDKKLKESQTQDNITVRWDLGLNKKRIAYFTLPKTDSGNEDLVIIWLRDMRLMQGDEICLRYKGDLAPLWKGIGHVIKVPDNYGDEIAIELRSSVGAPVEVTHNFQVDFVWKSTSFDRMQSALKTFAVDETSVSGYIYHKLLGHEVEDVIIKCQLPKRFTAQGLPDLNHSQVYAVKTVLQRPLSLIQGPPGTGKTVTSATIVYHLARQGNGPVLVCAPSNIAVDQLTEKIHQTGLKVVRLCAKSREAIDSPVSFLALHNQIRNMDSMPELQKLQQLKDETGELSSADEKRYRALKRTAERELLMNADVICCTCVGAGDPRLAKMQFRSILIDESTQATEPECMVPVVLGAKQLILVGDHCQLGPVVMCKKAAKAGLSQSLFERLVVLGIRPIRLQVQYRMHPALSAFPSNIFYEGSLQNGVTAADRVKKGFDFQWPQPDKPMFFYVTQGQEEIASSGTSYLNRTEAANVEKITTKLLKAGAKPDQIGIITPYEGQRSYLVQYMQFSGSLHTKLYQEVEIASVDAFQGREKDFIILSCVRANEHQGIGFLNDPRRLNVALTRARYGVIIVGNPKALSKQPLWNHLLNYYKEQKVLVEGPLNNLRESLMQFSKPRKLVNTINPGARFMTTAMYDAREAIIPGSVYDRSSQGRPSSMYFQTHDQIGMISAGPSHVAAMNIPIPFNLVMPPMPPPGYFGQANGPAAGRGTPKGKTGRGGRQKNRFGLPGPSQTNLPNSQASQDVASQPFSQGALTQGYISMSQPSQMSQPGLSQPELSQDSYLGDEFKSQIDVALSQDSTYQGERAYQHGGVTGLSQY
Protocol: Full-length human UPF1 helicase was expressed and purified as described previously ([36]).
as §1, §2
Supplementary Figure 14. IC50 DNA unwinding determined following 2 hours pre-incubation. […] The assay procedure and reaction conditions for each helicase were identical (see methods, main manuscript). The figure complements main manuscript Figure 6. […] The reason for this is unclear.

hPIF1HD wild type = biological target: T3, hPIF1HD wild type (Homo sapiens, UniProt Q9H611 206-620); assay: EMSA; 5 mM AMP-PNP, 5.5 mM MgCl2; 2 nM protein, 0.25 nM DNA; no inhibitor; 20 mM HEPES-NaOH pH 7.5, 20 mM NaCl, 5.5 mM MgCl2, 5 mM AMP-PNP, 1 mM DTT, 0.1 mg/ml BSA; 0.25 nM DNA; binding temperature not stated explicitly (helicase assay conditions 37 C); 5% PAGE, 0.25x TBE; conditions: protein: recombinant; tags: N-terminal His6 removed; GSRM cloning residues remain; label: 5'-32P; single strand
T3 sequence: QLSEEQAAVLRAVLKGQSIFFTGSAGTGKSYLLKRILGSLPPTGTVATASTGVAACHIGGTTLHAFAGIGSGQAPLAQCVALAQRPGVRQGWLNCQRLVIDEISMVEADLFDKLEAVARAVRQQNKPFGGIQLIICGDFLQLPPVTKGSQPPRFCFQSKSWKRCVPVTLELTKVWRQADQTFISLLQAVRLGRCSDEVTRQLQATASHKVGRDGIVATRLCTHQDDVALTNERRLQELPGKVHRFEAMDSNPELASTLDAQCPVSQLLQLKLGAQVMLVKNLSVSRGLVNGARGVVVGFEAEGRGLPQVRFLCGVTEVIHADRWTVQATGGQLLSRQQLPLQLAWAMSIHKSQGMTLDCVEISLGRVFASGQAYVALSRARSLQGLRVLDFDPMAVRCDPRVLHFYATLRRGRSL

Molecule	IC50 (FLhPIF1; 2 h pre-incubation at 22°C with 100 nM FLhPIF1, then 1:10 dilution into helicase assay)	IC50 (FLhPIF1; 2 h pre-incubation at 22°C)	increase in inhibition of FLhPIF1 DNA unwinding after pre-incubation (FLhPIF1; 3 h pre-incubation, 100 nM FLhPIF1, 100 μM SMI)	inhibition of hUPF1 helicase [1]	binding result (hPIF1HD wild type)
CC(=O)Nc1ccc(-c2csc(N)n2)cc1 [Compound 1D]	978 ± 221 µM	~1000 µM	5–10%	minimal inhibition	
B1					binds
